# Data published in publication PMC8326056 (Journal of Animal Science, 2021).
# Where a name gives a salt, the structure may show the parent alone.
# Tests used:
# [1] = test system: bovine i.m. adipose tissue; assay: cAMP in i.m. adipose tissue explants (Cyclic AMP XP Assay Kit); format: cell-based, bovine (Angus cross steers); details: for Effect on cAMP (in words): ligand alone; for Effect on cAMP (in words) / cAMP: 30 min; for cAMP: i.m., mean ± SEM, n = 6 steers, baseline 0.64 ± 0.19
# Protocol: (§1) Fresh s.c. adipose tissue was cut into small pieces (50 to 100 mg, actual weight recorded) and i.m. adipose tissue was dissected from the LM as described previously ([Smith and Crouse, 1984]; [Miller et al., 1988]) and weighed. The s.c. and i.m. adipose samples were incubated according to 3 different sets of experimental conditions. Experiment 1: Small pieces of s.c. and i.m. adipose tissues (50 to 100 mg; 1 to 2 mm thick; [Smith and Prior, 1981]) were preincubated in 6-well tissue culture plates in a CO2/O2 incubator (NuAire model 4750 CO2 incubator, Plymouth, MN) for 30 min at 37 °C, 5% CO2 in KHB plus 5 mM glucose, 10 mM HEPES, and 0.5 mM theophylline. […] Experiment 2: The s.c. and i.m. adipose samples were preincubated in KHB plus 5 mM glucose, 10 mM HEPES, and 0.5 mM theophylline in the presence or absence of either 10 µM L-748,337 (β 3-AR antagonist) or 50 µM PRO (β-AR pan-antagonist). […] After the 30 min preincubation, either DOB (β 1-AA) or SAL (β 2-AA) was added to the culture plate wells in a concentration-dependent manner (10^–9 to 10^–4 M) for an additional 30 min. For all experiments, there were at least 3 replicate wells per treatment condition. After a total of 1-hr incubation, the adipose samples were homogenized in 1 mL cell lysis buffer (Cell Signaling Technology, Danvers, MA) with 1 mM phenymethylsulfony fluoride, and centrifuged at 14,000 × g for 30 min to remove tissue debris. The supernatant fractions were stored at −80 °C until subsequent analyses were performed.
# (§2) The concentration of cAMP was determined based on the principle of competitive binding using the Cyclic AMP XP Assay Kit according to the manufacturer’s instructions. Cytosolic extracts from the adipose explants were co-incubated at room temperature for 3 hr in 96-well plates with the HRP-linked cAMP substrate coated onto an immobilized rabbit monoclonal cAMP antibody using a horizontal orbital plate shaker. After the reaction, color development was measured at 450 nm using an Epoch microplate reader (Biotek Instruments, Winooski, VT). All samples were analyzed in duplicate. A standard curve and cAMP concentrations were calculated using GrapPad Prism 6.04 software (GraphPad Software Inc., San Diego, CA).
# [2] = test system: bovine s.c. adipose tissue; assay: cAMP in s.c. adipose tissue explants (Cyclic AMP XP Assay Kit); format: cell-based, bovine (Angus cross steers); details: for Effect on cAMP (in words): ligand alone; for Effect on cAMP (in words) / cAMP: 30 min; for cAMP: n = 6 steers, baseline 0.42 ± 0.06
# Protocol: as §1, §2
# [3] = test system: bovine i.m. adipose tissue; assay: Lipolysis: NEFA release, i.m. adipose tissue explants; format: cell-based, bovine (Angus cross steers); details: 30 min; for Effect on NEFA release (in words): i.m. adipose tissue; for NEFA: i.m., mean ± SEM, baseline 0.65 ± 0.20
# bovine β 1-AR = target: T1, bovine β 1-AR (Bos taurus, UniProt Q9TT96); assay: cAMP induction in CHO cells transfected with bovine β 1-AR construct (LANCE cAMP kit); format: cell-based; details: 45 min, 5 mM theophylline, ND = cAMP not detected or insufficient for EC50
# T1 construct: expressed in transfected cells; host or cells: Chinese hamster ovary (CHO) cells, pcDNA3.1+ vector
# T1 sequence (Q9TT96 whole entry): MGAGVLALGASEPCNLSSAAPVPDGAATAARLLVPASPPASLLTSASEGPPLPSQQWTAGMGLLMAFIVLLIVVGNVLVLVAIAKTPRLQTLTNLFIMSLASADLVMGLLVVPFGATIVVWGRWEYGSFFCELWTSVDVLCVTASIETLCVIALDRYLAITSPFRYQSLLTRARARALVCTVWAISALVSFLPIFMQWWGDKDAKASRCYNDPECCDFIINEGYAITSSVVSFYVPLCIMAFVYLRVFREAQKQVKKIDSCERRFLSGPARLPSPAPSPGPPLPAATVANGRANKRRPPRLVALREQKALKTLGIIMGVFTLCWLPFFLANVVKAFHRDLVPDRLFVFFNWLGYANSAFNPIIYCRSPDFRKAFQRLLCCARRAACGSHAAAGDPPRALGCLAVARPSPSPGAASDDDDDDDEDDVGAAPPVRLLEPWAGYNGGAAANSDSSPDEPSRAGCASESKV
# Protocol: (§3) Chinese Hamster Overy cells were transfected with either the bovine β 1-, β 2-, or β 3-AR constructs in pcDNA3.1+. Expression of the β-AR was confirmed by polymerase chain reaction (PCR). Thereafter, cells were grown in DMEM/Ham’s F12 media with 10% FBS and 1% penicillin/streptomycin at 37 °C under 5% CO2. Opti-plates (Perkin Elmer, Waltham, MA) were used for all experiments. For each experiment, cells were plated into 96-well tissue culture plates at 60,000 cells per well in a volume of 100 µL media. Cells were grown for 48 hr after plating prior to ligand addition and determination of cAMP.
# (§4) All samples and standards were tested in duplicate for each repetition, and 4 repetitions per cell line were performed for each potential ligand tested. Controls included no treatment (media alone), 5 mM theophylline alone (an inhibitor of phosphodiesterase), 0.1 % DMSO alone, and water alone. None of the controls differed from media alone and are thus not reported. A volume of media equal to the volume of test material to be added was removed from the well just prior to stimulation. Theophylline was added in a volume of 25 µL to obtain a final concentration of 5 mM and each test molecule was delivered in 10 µL. Cells were returned to 37 °C and allowed to incubate for 45 min before media was removed and the cells lysed in 38 µL lysis buffer A. The LANCE cAMP detection kit (AD0262E) was purchased from Perkin Elmer. The LANCE assay instructions were followed for a 40 µL reaction volume with 15 µL of cell lysate. The reaction was incubated for 20 hr prior to measuring fluorescence. A standard curve was generated with increasing concentrations of cAMP, and the linear portion of the curve was used to calculate sample cAMP concentrations.
# [4] = test system: bovine i.m. adipose tissue; assay: Lipolysis: glycerol release, i.m. adipose tissue explants; format: cell-based, bovine (Angus cross steers); details: 30 min; for Effect on glycerol release (in words): i.m. adipose tissue; for Glycerol: i.m., mean ± SEM, baseline 48.6 ± 10.3
# [5] = test system: bovine s.c. adipose tissue; assay: Lipolysis: NEFA release, s.c. adipose tissue explants; format: cell-based, bovine (Angus cross steers); details: for Effect on NEFA release (in words) / NEFA: 30 min; for NEFA: s.c., mean ± SEM, baseline 0.99 ± 0.40
# bovine β 3-AR = target: T2, bovine β 3-AR (Bos taurus, UniProt P46626); assay: cAMP induction in CHO cells transfected with bovine β 3-AR construct (LANCE cAMP kit); format: cell-based; details: 45 min, 5 mM theophylline
# T2 construct: expressed in transfected cells; host or cells: Chinese hamster ovary (CHO) cells, pcDNA3.1+ vector
# T2 sequence (P46626 whole entry): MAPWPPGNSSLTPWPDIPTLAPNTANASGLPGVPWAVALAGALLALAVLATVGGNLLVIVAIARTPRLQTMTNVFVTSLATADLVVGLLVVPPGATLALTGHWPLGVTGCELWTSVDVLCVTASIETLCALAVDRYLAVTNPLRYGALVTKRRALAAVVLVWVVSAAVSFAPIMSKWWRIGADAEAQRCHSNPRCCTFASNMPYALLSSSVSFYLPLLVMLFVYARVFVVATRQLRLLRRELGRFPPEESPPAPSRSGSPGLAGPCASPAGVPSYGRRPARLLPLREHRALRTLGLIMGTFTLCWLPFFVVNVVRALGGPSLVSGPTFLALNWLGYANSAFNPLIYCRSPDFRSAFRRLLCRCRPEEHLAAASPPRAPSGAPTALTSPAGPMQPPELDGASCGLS
# Protocol: as §3, §4
# [6] = test system: bovine s.c. adipose tissue; assay: Lipolysis: glycerol release, s.c. adipose tissue explants; format: cell-based, bovine (Angus cross steers); details: for Glycerol: s.c., mean ± SEM, baseline 50.0 ± 12.8
# [7] = s.c., 10^–6 M ligand, mean ± SEM
# [8] = s.c., 10^–7 M ligand, mean ± SEM
# [9] = s.c., 10^–8 M ligand, mean ± SEM
# [10] = Bos taurus, sc, 0.5 h, s.c. adipose tissue, 30 min at 37 °C, n = 5
Structure (SMILES),Effect on cAMP (in words) ([1]; i.m. adipose tissue),Effect on cAMP (in words) ([2]; s.c. adipose tissue),cAMP ([1]; 10^–6 M ligand) [pmol/100 mg tissue],cAMP ([1]; 10^–7 M ligand) [pmol/100 mg tissue],cAMP ([1]; 10^–8 M ligand) [pmol/100 mg tissue],Effect on NEFA release (in words) [3],NEFA ([3]; 10^–6 M ligand) [µmol/100 mg tissue],NEFA ([3]; 10^–7 M ligand) [µmol/100 mg tissue],NEFA ([3]; 10^–8 M ligand) [µmol/100 mg tissue],"cAMP [2, 7] [pmol/100 mg tissue]","cAMP [2, 8] [pmol/100 mg tissue]","cAMP [2, 9] [pmol/100 mg tissue]",Effect on glycerol release (in words) [4],Glycerol ([4]; 10^–6 M ligand) [nmol/100 mg tissue],Glycerol ([4]; 10^–7 M ligand) [nmol/100 mg tissue],Glycerol ([4]; 10^–8 M ligand) [nmol/100 mg tissue],Effect on NEFA release (in words) ([5]; s.c. adipose tissue),NEFA ([5]; 10^–6 M ligand) [µmol/100 mg tissue],NEFA ([5]; 10^–7 M ligand) [µmol/100 mg tissue],NEFA ([5]; 10^–8 M ligand) [µmol/100 mg tissue],also measured
"CC(CCc1ccc(O)cc1)NCCc1ccc(O)c(O)c1 (stereo not drawn) [DOB, dobutamine hydrochloride]",without effect in i.m. adipose tissue,increased cAMP production in s.c. adipose tissue in a dose-dependent manner,–,–,–,–,–,–,–,–,–,–,–,–,–,–,–,–,–,–,–
"CC(C)N[C@@H]1CCn2c(=O)[nH]c3cccc(c32)[C@H]1O (racemic) [ZIL, zilpaterol hydrochloride]",Neither RAC nor ZIL (10^–8 to 10^–6 M) affected cAMP concentrations,Neither RAC nor ZIL (10^–8 to 10^–6 M) affected cAMP concentrations,0.78 ± 0.39,0.51 ± 0.13,0.79 ± 0.30,Neither RAC nor ZIL affected cAMP production or glycerol or NEFA release,0.50 ± 0.16,0.91 ± 0.30,0.78 ± 0.28,0.62 ± 0.27,0.61 ± 0.27,0.76 ± 0.37,Neither RAC nor ZIL affected cAMP production or glycerol or NEFA release,46.0 ± 14.5,48.6 ± 13.7,67.4 ± 21.6,Neither RAC nor ZIL affected cAMP production or glycerol or NEFA release,1.17 ± 0.35,1.25 ± 0.31,1.06 ± 0.30,"Induction of cAMP (EC50), β 1-Construct (bovine β 1-AR): no detectible cAMP response; EC50 (bovine β 3-AR): 9.1 µM; Glycerol ([6]; 10^–6 M ligand, 30 min): 65.9 ± 12.6 nmol/100 mg tissue; Glycerol ([6]; 10^–7 M ligand, 30 min): 59.3 ± 15.4 nmol/100 mg tissue; Glycerol ([6]; 10^–8 M ligand, 30 min): 54.8 ± 8.0 nmol/100 mg tissue"
"CC(CCc1ccc(O)cc1)NCC(O)c1ccc(O)cc1.Cl (racemic) [RAC, ractopamine hydrochloride]",Neither RAC nor ZIL (10^–8 to 10^–6 M) affected cAMP concentrations,Neither RAC nor ZIL (10^–8 to 10^–6 M) affected cAMP concentrations,0.70 ± 0.18,0.76 ± 0.18,0.86 ± 0.22,Neither RAC nor ZIL affected cAMP production or glycerol or NEFA release,0.56 ± 0.13,1.18 ± 0.50,0.75 ± 0.21,0.44 ± 0.14,0.38 ± 0.08,0.39 ± 0.09,Neither RAC nor ZIL affected cAMP production or glycerol or NEFA release,42.6 ± 11.4,81.7 ± 25.5,52.4 ± 16.4,Neither RAC nor ZIL affected cAMP production or glycerol or NEFA release,1.06 ± 0.13,1.20 ± 0.21,1.10 ± 0.15,"EC50 (bovine β 1-AR): 0.002 µM; EC50 (bovine β 3-AR): 0.024 µM; Glycerol ([6]; 10^–6 M ligand, 30 min): 63.3 ± 9.20 nmol/100 mg tissue; Glycerol ([6]; 10^–7 M ligand, 30 min): 52.6 ± 11.1 nmol/100 mg tissue; Glycerol ([6]; 10^–8 M ligand, 30 min): 50.3 ± 7.60 nmol/100 mg tissue"
"CC(C)NCC(O)c1ccc(O)c(O)c1 (stereo not drawn) [ISO, isoproterenol hydrochloride]",not dose-dependent,increased cAMP accumulation,–,–,–,failed to elicit a similar response curve,–,–,–,–,–,–,had no effect,–,–,–,increased NEFA release in a dose-dependent manner,–,–,–,"EC50 ([2]; Bos taurus, sc, 0.5 h, s.c. adipose tissue, 30 min at 37 °C, n = 5, read-out: EC50, cAMP accumulation): 0.22 µM; Concentration at which the cAMP response plateaus ([2]; s.c. adipose tissue): 10^–6 M; EC50 [5, 10]: 0.18 µM; EC50 [6, 10]: 5.1 µM; Effect on glycerol release (in words) ([6]; s.c. adipose tissue, 30 min): increased glycerol release in a concentration-dependent manner"
C[C@H](Cc1ccc(OCC(=O)O)cc1)NC[C@H](O)c1cccc(Cl)c1 [BRL-37344],–,Neither BRL-37344 nor LUB influenced cAMP or NEFA concentrations,–,–,–,not influenced,–,–,–,–,–,–,–,–,–,–,Neither BRL-37344 nor LUB influenced cAMP or NEFA concentrations,–,–,–,"cAMP concentration compared with explants treated with the same concentrations of LUB ([1]; i.m. adipose tissue, 10^–6 and 10^–5 M, P < 0.05): significantly less; Adipose tissue lipolytic sensitivity (−logEC50) to β-AR ligands, s.c. ([2]; s.c., cAMP readout, mean ± SEM, n = 12 cattle, combinations: preincubation with 1 µM LUB ± 10 µM L-748,337): 7.00 ± 3.27"
"CC(C)(C)NCC(O)c1ccc(O)c(CO)c1 (stereo not drawn) [SAL, salbutamol sulfate]",without effect in i.m. adipose tissue,increased cAMP production in s.c. adipose tissue in a dose-dependent manner,–,–,–,–,–,–,–,–,–,–,–,–,–,–,–,–,–,–,–
